Values of other authors as cited in patent publication EP1911850A1, “Method of producing 6-thio-sialylated glycoproteins and glycoconjugates” (CENTRE NATIONAL DE LA RECHERCHE SCIENTIFIQUE (CNRS), priority 2006, dated 2008).

System: a galactosidase
Conditions: background statement; comparator not stated

## CC(=O)N[C@H]1C(O)O[C@H](CO)[C@@H](O[C@@H]2S[C@H](CO)[C@H](O)[C@H](O)[C@H]2O)[C@@H]1O (stereo partly shown) [5'-Thio-N-acetyllactosamine]
  increased stability to digestion by a galactosidase: 200 fold
